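In this assay, cells in 96-well plates receive the compound at five concentrations for 48 hours. Endpoints are linearly interpolated between the surrounding concentrations. GI50 is the concentration that inhibits growth by half.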 The source made the active and inactive calls. Cut-off read from the data, not from the text of the source: active = GI50 up to about 1.1 µM and inactive = higher.
Experiments:
Test in all cases: NCI tumour cell line growth inhibition, 48 h
HOP-92 = tested on: HOP-92
SR = tested on: SR
SNB-75 = tested on: SNB-75
TK-10 = tested on: TK-10
EKVX = tested on: EKVX
SK-MEL-2 = tested on: SK-MEL-2
NCI-H226 = tested on: NCI-H226
OVCAR-3 = tested on: OVCAR-3
M14 = tested on: M14
HOP-62 = tested on: HOP-62
KM12 = tested on: KM12
SK-OV-3 = tested on: SK-OV-3
K562 = tested on: K562
SN12C = tested on: SN12C
A498 = tested on: A498
ACHN = tested on: ACHN
SK-MEL-28 = tested on: SK-MEL-28
SK-MEL-5 = tested on: SK-MEL-5
SF-539 = tested on: SF-539
OVCAR-8 = tested on: OVCAR-8

Structure (SMILES): N/C(S)=N/N=C/c1ncccc1O
- GI50 (HOP-92): 0.52 µM (active)
- GI50 (SR): 3.01 µM (inactive)
- GI50 (SNB-75): 1.94 µM (inactive)
- GI50 (TK-10): 9.57 µM (inactive)
- GI50 (EKVX): 2.35 µM (inactive)
- GI50 (SK-MEL-2): 6.84 µM (inactive)
- GI50 (NCI-H226): 2.95 µM (inactive)
- GI50 (OVCAR-3): 1.88 µM (inactive)
- GI50 (M14): 1.95 µM (inactive)
- GI50 (HOP-62): 1.23 µM (inactive)
- GI50 (KM12): 2.6 µM (inactive)
- GI50 (SK-OV-3): 4.21 µM (inactive)
- GI50 (K562): 1.83 µM (inactive)
- GI50 (SN12C): 0.964 µM (active)
- GI50 (A498): 2.25 µM (inactive)
- GI50 (ACHN): 0.766 µM (active)
- GI50 (SK-MEL-28): 4.29 µM (inactive)

Structure (SMILES): CC(=O)c1ccc(NC(=O)/C(Cc2ccccn2)=N/NC(=O)C[N+](C)(C)C)cc1
- GI50 (SK-MEL-5): > 100 µM (inactive)
- GI50 (SR): > 100 µM (inactive)
- GI50 (SNB-75): > 100 µM (inactive)
- GI50 (TK-10): > 100 µM (inactive)
- GI50 (EKVX): > 100 µM (inactive)
- GI50 (SF-539): > 100 µM (inactive)
- GI50 (SK-MEL-2): > 100 µM (inactive)
- GI50 (NCI-H226): > 100 µM (inactive)
- GI50 (OVCAR-3): > 100 µM (inactive)
- GI50 (M14): > 100 µM (inactive)
- GI50 (HOP-62): > 100 µM (inactive)
- GI50 (KM12): > 100 µM (inactive)
- GI50 (SK-OV-3): > 100 µM (inactive)
- GI50 (OVCAR-8): > 100 µM (inactive)
- GI50 (K562): > 100 µM (inactive)
- GI50 (SN12C): > 100 µM (inactive)
- GI50 (A498): > 100 µM (inactive)
- GI50 (ACHN): > 100 µM (inactive)
- GI50 (SK-MEL-28): > 100 µM (inactive)

Structure (SMILES): NC(=O)C#CC#CC#CCO
- GI50 (HOP-92): 2.28 µM (inactive)
- GI50 (SK-MEL-5): 1.98 µM (inactive)
- GI50 (SR): 2.47 µM (inactive)
- GI50 (SNB-75): 1.82 µM (inactive)
- GI50 (TK-10): 1.61 µM (inactive)
- GI50 (EKVX): 1.68 µM (inactive)
- GI50 (SK-MEL-2): 2.2 µM (inactive)
- GI50 (NCI-H226): 11.6 µM (inactive)
- GI50 (OVCAR-3): 1.9 µM (inactive)
- GI50 (M14): 1.98 µM (inactive)
- GI50 (HOP-62): 10.9 µM (inactive)
- GI50 (KM12): 3.31 µM (inactive)
- GI50 (SK-OV-3): 12.8 µM (inactive)
- GI50 (OVCAR-8): 1.81 µM (inactive)
- GI50 (K562): 2.04 µM (inactive)
- GI50 (SN12C): 1.96 µM (inactive)
- GI50 (A498): 4.4 µM (inactive)
- GI50 (ACHN): 1.34 µM (inactive)
- GI50 (SK-MEL-28): 2.14 µM (inactive)

Structure (SMILES): COc1c2cc(C(C)(C)C)cc1CSCc1cc(C(C)(C)C)cc(c1OC)CCCCC2
- GI50 (SK-MEL-5): 24.1 µM (inactive)
- GI50 (SR): > 50 µM (inactive)
- GI50 (SNB-75): > 50 µM (inactive)
- GI50 (TK-10): 31.9 µM (inactive)
- GI50 (SF-539): 19.6 µM (inactive)
- GI50 (SK-MEL-2): 25.1 µM (inactive)
- GI50 (NCI-H226): 20.5 µM (inactive)
- GI50 (OVCAR-3): 15.1 µM (inactive)
- GI50 (M14): 46.7 µM (inactive)
- GI50 (HOP-62): > 50 µM (inactive)
- GI50 (KM12): > 50 µM (inactive)
- GI50 (SK-OV-3): > 50 µM (inactive)
- GI50 (OVCAR-8): 28.2 µM (inactive)
- GI50 (K562): > 50 µM (inactive)
- GI50 (SN12C): > 50 µM (inactive)
- GI50 (A498): 38.6 µM (inactive)
- GI50 (ACHN): 31.8 µM (inactive)
- GI50 (SK-MEL-28): 26.5 µM (inactive)

Structure (SMILES): CCc1cccc(C(C)C)c1NC(=O)/C(=N\NC(N)=O)C(C(=O)OC)c1cnc2ccccc2n1 (stereo not drawn)
- GI50 (SK-MEL-5): 18.7 µM (inactive)
- GI50 (SR): 46.5 µM (inactive)
- GI50 (SNB-75): 47.4 µM (inactive)
- GI50 (TK-10): > 100 µM (inactive)
- GI50 (EKVX): > 100 µM (inactive)
- GI50 (SF-539): 52.7 µM (inactive)
- GI50 (SK-MEL-2): 53.3 µM (inactive)
- GI50 (NCI-H226): 50.5 µM (inactive)
- GI50 (OVCAR-3): 20.8 µM (inactive)
- GI50 (M14): 39.6 µM (inactive)
- GI50 (HOP-62): 40.6 µM (inactive)
- GI50 (KM12): 41.6 µM (inactive)
- GI50 (SK-OV-3): > 100 µM (inactive)
- GI50 (OVCAR-8): 54.1 µM (inactive)
- GI50 (K562): 37.2 µM (inactive)
- GI50 (SN12C): 35 µM (inactive)
- GI50 (A498): > 100 µM (inactive)
- GI50 (ACHN): 62.7 µM (inactive)
- GI50 (SK-MEL-28): 55.8 µM (inactive)

Structure (SMILES): CC(C(=O)ON1C(=O)CCC1=O)c1ccc(C(=O)c2ccccc2)s1 (stereo not drawn)
- GI50 (HOP-92): > 100 µM (inactive)
- GI50 (SK-MEL-5): > 100 µM (inactive)
- GI50 (SR): > 100 µM (inactive)
- GI50 (SNB-75): > 100 µM (inactive)
- GI50 (TK-10): > 100 µM (inactive)
- GI50 (EKVX): > 100 µM (inactive)
- GI50 (SK-MEL-2): > 100 µM (inactive)
- GI50 (NCI-H226): > 100 µM (inactive)
- GI50 (OVCAR-3): > 100 µM (inactive)
- GI50 (M14): > 100 µM (inactive)
- GI50 (HOP-62): > 100 µM (inactive)
- GI50 (KM12): > 100 µM (inactive)
- GI50 (SK-OV-3): > 100 µM (inactive)
- GI50 (OVCAR-8): > 100 µM (inactive)
- GI50 (K562): > 100 µM (inactive)
- GI50 (SN12C): > 100 µM (inactive)
- GI50 (A498): > 100 µM (inactive)
- GI50 (ACHN): > 100 µM (inactive)
- GI50 (SK-MEL-28): > 100 µM (inactive)

Structure (SMILES): c1csc(-c2cc(-c3cccs3)c(-c3ccsc3)s2)c1
- GI50 (SK-MEL-5): > 100 µM (inactive)
- GI50 (SR): > 100 µM (inactive)
- GI50 (SNB-75): > 100 µM (inactive)
- GI50 (TK-10): > 100 µM (inactive)
- GI50 (EKVX): > 100 µM (inactive)
- GI50 (SF-539): > 100 µM (inactive)
- GI50 (SK-MEL-2): > 100 µM (inactive)
- GI50 (NCI-H226): > 100 µM (inactive)
- GI50 (M14): > 100 µM (inactive)
- GI50 (HOP-62): > 100 µM (inactive)
- GI50 (KM12): 55.5 µM (inactive)
- GI50 (SK-OV-3): > 100 µM (inactive)
- GI50 (OVCAR-8): > 100 µM (inactive)
- GI50 (K562): > 100 µM (inactive)
- GI50 (SN12C): 56.8 µM (inactive)
- GI50 (A498): > 100 µM (inactive)
- GI50 (ACHN): > 100 µM (inactive)
- GI50 (SK-MEL-28): > 100 µM (inactive)

Structure (SMILES): O=C(/C=C(\O)C(=O)O)/C=C(\O)c1ccccc1
- GI50 (SR): > 100 µM (inactive)
- GI50 (SNB-75): > 4.65 µM (inactive)
- GI50 (TK-10): > 4.65 µM (inactive)
- GI50 (EKVX): > 4.65 µM (inactive)
- GI50 (SK-MEL-2): > 4.65 µM (inactive)
- GI50 (NCI-H226): > 4.65 µM (inactive)
- GI50 (OVCAR-3): > 4.65 µM (inactive)
- GI50 (M14): > 100 µM (inactive)
- GI50 (HOP-62): > 4.65 µM (inactive)
- GI50 (SK-OV-3): > 4.65 µM (inactive)
- GI50 (OVCAR-8): > 100 µM (inactive)
- GI50 (K562): > 4.65 µM (inactive)
- GI50 (SN12C): > 4.65 µM (inactive)
- GI50 (A498): > 4.65 µM (inactive)
- GI50 (ACHN): > 4.65 µM (inactive)

Structure (SMILES): C#CCNC(CCCNC(=N)N)C(=O)O (stereo not drawn)
- GI50 (HOP-92): > 100 µM (inactive)
- GI50 (SK-MEL-5): > 100 µM (inactive)
- GI50 (SR): > 100 µM (inactive)
- GI50 (SNB-75): > 100 µM (inactive)
- GI50 (TK-10): > 100 µM (inactive)
- GI50 (EKVX): > 100 µM (inactive)
- GI50 (SK-MEL-2): > 100 µM (inactive)
- GI50 (NCI-H226): > 100 µM (inactive)
- GI50 (OVCAR-3): > 100 µM (inactive)
- GI50 (M14): > 100 µM (inactive)
- GI50 (HOP-62): > 100 µM (inactive)
- GI50 (KM12): > 100 µM (inactive)
- GI50 (SK-OV-3): > 100 µM (inactive)
- GI50 (OVCAR-8): > 100 µM (inactive)
- GI50 (K562): > 100 µM (inactive)
- GI50 (A498): > 100 µM (inactive)
- GI50 (ACHN): > 100 µM (inactive)
- GI50 (SK-MEL-28): > 100 µM (inactive)

Structure (SMILES): Cc1nn(C)c(=O)c2nn(-c3ccccc3)c(C)c12
- GI50 (SK-MEL-5): > 100 µM (inactive)
- GI50 (SR): > 100 µM (inactive)
- GI50 (SNB-75): > 100 µM (inactive)
- GI50 (TK-10): > 100 µM (inactive)
- GI50 (EKVX): > 100 µM (inactive)
- GI50 (SF-539): > 100 µM (inactive)
- GI50 (SK-MEL-2): > 100 µM (inactive)
- GI50 (NCI-H226): > 100 µM (inactive)
- GI50 (OVCAR-3): > 100 µM (inactive)
- GI50 (M14): > 100 µM (inactive)
- GI50 (HOP-62): > 100 µM (inactive)
- GI50 (KM12): > 100 µM (inactive)
- GI50 (SK-OV-3): > 100 µM (inactive)
- GI50 (OVCAR-8): > 100 µM (inactive)
- GI50 (K562): > 100 µM (inactive)
- GI50 (SN12C): > 100 µM (inactive)
- GI50 (A498): > 100 µM (inactive)
- GI50 (ACHN): > 100 µM (inactive)
- GI50 (SK-MEL-28): > 100 µM (inactive)

Structure (SMILES): CC(=O)OC1CC2C(=O)C(=O)C1(C)C2(C)C (stereo not drawn)
- GI50 (HOP-92): 56.6 µM (inactive)
- GI50 (SK-MEL-5): > 100 µM (inactive)
- GI50 (SR): > 100 µM (inactive)
- GI50 (SNB-75): > 100 µM (inactive)
- GI50 (TK-10): > 100 µM (inactive)
- GI50 (EKVX): > 100 µM (inactive)
- GI50 (NCI-H226): > 100 µM (inactive)
- GI50 (OVCAR-3): > 100 µM (inactive)
- GI50 (M14): > 100 µM (inactive)
- GI50 (HOP-62): > 100 µM (inactive)
- GI50 (SK-OV-3): > 100 µM (inactive)
- GI50 (OVCAR-8): > 100 µM (inactive)
- GI50 (K562): > 100 µM (inactive)
- GI50 (SN12C): > 100 µM (inactive)
- GI50 (A498): > 100 µM (inactive)
- GI50 (ACHN): > 100 µM (inactive)
- GI50 (SK-MEL-28): > 100 µM (inactive)

— ChEMBL document CHEMBL1201862, “PubChem BioAssay data set” (2004)
